Source: PMC8779298, “The Campylobacter jejuni Response Regulator and Cyclic-Di-GMP Binding CbrR Is a Novel Regulator of Flagellar Motility” (Microorganisms, 2021)

Tests used:
CbrR [1] = tested on: T1, CbrR; conditions: labelled compound (32P); 10 mM Tris pH 8.0, 5 mM MgCl2, 100 mM NaCl; active-site mutant
T1 construct: gene CJJ81176_0671
Target sequence in this assay (A0A0H3PJ41 whole entry E334A): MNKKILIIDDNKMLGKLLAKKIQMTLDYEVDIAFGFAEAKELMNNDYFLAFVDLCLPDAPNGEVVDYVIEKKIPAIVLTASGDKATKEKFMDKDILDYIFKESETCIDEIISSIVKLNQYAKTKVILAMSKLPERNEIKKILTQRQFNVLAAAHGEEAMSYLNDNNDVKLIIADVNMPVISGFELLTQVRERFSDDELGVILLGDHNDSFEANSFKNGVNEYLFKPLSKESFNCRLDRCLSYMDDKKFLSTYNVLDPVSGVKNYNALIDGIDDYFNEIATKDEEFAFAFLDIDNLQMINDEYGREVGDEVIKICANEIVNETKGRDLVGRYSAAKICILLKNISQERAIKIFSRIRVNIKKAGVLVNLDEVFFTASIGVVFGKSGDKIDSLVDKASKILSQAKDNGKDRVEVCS

CbrR [2] = tested on: T1, CbrR; conditions: labelled compound (32P); 10 mM Tris pH 8.0, 5 mM MgCl2, 100 mM NaCl; I-site mutant
Target sequence in this assay (A0A0H3PJ41 whole entry K323A/G324A/R325A/D326A): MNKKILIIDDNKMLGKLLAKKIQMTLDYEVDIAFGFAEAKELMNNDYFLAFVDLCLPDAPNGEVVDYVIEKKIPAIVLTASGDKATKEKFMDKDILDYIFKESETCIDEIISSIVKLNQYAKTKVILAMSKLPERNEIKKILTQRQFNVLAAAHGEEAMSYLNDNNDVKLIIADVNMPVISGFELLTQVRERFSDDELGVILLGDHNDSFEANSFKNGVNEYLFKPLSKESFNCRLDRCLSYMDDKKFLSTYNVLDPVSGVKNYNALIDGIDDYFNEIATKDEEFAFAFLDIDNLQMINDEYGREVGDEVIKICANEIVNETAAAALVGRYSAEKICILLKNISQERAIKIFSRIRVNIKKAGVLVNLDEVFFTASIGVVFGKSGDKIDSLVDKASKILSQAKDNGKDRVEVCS

Structure (SMILES)	DRaCALA, nitrocellulose spot (CbrR [1])	binding (CbrR [2])
Nc1nc2c(ncn2[C@@H]2O[C@@H]3COP(=O)(O)O[C@H]4[C@@H](O)[C@H](n5cnc6c(=O)[nH]c(N)nc65)O[C@@H]4COP(=O)(O)O[C@H]3[C@H]2O)c(=O)[nH]1 [c-di-GMP]	did not affect binding of either GTP or c-di-GMP	substitution of the I-site in the protein led to the loss of c-di-GMP binding
Nc1nc2c(ncn2[C@@H]2O[C@H](COP(=O)(O)OP(=O)(O)OP(=O)(O)O)[C@@H](O)[C@H]2O)c(=O)[nH]1 [GTP]	did not affect binding of either GTP or c-di-GMP	–
